# Earlier results, collected in US20200276216A1, “INHIBITION OF GLYCOLYSIS WITH 2-DEOXY-D-GLUCOSE AND D-LACTIC ACID DIMER” (priority 2020, published 2020).
# Key:
# [1] = in vivo, po
# [2] = in vivo
# cancer cells = settings: dose dependent, exclusive of its ability to lower pH
half-life [1],SMILES,estimated maximum approximate dose before side effects become clinically significant [2],selectivity of action in vitro (cancer cells)
4.5 to 8.2 h,"O=CC[C@@H](O)[C@H](O)[C@H](O)CO [2DG, 2-Dexoxy-D-Glucose]",~60 mg/kg/day,
,"C[C@@H](O)C(=O)O[C@H](C)C(=O)O [DLAD, D-Lactic Acid Dimer]",,selective for cancer cells
